Read-outs that look alike come from different tables or passages of the source.
Tests used:
CDK-2/cyclin A = CDK-2/cyclin A (Homo sapiens, UniProt P24941); test: CDK inhibition assay, CDK-2/cyclin A against Histone HI, 33P-ATP; type: biochemical; conditions: at 500 nM
Method in brief: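 CDK-2/cyclin A (5-20 mU) phosphorylating Histone HI (1 mg/ml) in 50 mM Hepes pH 7.5, 100 mM NaCl, 10 mM Mg acetate, 0.02 mM [33P-γ-ATP], 30 min at room temperature. Stopped with orthophosphoric acid, captured on P81 filters for radiometric readout.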

CDK-9/Cyclin T1 = CDK-9/Cyclin T1 (Homo sapiens, UniProt P50750); test: CDK inhibition assay, CDK-9/Cyclin T1 against substrate peptide, 33P-ATP; type: biochemical; conditions: at 500 nM
Protocol: (50-1000 cpm/pmole) and incubated for 30 min at room temperature. Assays were stopped by addition of 5 µl of 0.5 M (3%) orthophosphoric acid and then harvested onto P81 Unifilter plates with a wash buffer of 50 mM orthophosphoric acid.

MCF-7 = test: MTT assay on cancer cell line MCF-7; type: cell-based, Human; conditions: Homo sapiens
Protocol: (§1) Cell culture, growth conditions and treatments. […] Different molecules were dissolved in DMSO and were delivered to cell cultures in complete medium.

PC-3 = test: MTT assay on cancer cell line PC-3; type: cell-based, human; conditions: Homo sapiens
Protocol: as §1

MDA-MB435 = test: MTT assay on cancer cell line MDA-MB435; type: cell-based, Human; conditions: Homo sapiens, MDA-MB-435, MDA-MB435, at 10µM, read-out: In vitro cell inhibition, % of inhibition, MDA-MB435
Protocol: as §1

HCT-116 = test: MTT assay on cancer cell line HCT-116; type: cell-based, human; conditions: Homo sapiens, at 10µM
Protocol: as §1

SHSY-5Y = test: MTT assay on cancer cell line SHSY-5Y; type: cell-based, human; conditions: Homo sapiens, SH-SY5Y
Protocol: as §1

[1] = Table-7, read-out: In vitro CDK2 % of inhibition
[2] = read-out: inhibition against CDK2
[3] = Table-7, read-out: In vitro CDK9 % of inhibition
[4] = read-out: inhibition against CDK9
[5] = MCF7, read-out: inhibition against MCF-7 cell lines
[6] = read-out: inhibition against SHSY-5Y cell lines
[7] = MCF7, MCF-7, Table 9 (for reference), read-out: In vitro cell inhibition, % of inhibition, MCF-7
[8] = Table 9 (for reference), read-out: In vitro cell inhibition, % of inhibition, PC-3
[9] = Table 9 (for reference), read-out: In vitro cell inhibition, % of inhibition, HCT-116
[10] = SHSY-5Y, Table 9 (for reference), read-out: In vitro cell inhibition, % of inhibition, SHSY-5Y

Sequence of CDK-9/Cyclin T1 (P50750 whole entry): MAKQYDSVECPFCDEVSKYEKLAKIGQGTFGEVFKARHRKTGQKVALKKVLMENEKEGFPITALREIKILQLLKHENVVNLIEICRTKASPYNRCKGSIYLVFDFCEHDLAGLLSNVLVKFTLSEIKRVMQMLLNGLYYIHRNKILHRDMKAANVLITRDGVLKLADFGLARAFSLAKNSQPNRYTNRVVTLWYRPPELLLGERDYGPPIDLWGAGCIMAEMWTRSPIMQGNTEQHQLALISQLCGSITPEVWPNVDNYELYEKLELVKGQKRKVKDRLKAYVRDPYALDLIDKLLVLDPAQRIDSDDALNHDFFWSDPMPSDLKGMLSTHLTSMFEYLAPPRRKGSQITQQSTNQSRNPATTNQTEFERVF
Sequence of CDK-9/Cyclin T1 (O60563 whole entry partner): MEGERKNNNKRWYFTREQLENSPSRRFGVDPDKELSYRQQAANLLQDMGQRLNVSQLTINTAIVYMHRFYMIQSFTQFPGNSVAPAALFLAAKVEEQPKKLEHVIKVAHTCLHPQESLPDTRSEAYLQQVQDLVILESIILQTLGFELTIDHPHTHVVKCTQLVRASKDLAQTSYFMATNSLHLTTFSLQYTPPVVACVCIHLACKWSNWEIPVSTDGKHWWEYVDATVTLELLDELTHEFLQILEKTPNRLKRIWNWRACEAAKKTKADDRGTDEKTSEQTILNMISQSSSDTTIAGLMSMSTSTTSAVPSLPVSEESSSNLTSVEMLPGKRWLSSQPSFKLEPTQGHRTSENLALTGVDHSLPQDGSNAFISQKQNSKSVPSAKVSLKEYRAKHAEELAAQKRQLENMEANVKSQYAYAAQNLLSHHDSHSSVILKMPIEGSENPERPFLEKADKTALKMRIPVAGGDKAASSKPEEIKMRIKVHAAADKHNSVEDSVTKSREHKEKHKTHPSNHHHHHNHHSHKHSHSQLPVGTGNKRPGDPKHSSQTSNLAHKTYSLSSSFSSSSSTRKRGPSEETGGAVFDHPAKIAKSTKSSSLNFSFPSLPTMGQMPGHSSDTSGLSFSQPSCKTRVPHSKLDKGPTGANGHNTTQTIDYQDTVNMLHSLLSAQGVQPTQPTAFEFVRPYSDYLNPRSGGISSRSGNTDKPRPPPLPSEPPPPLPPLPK

c1ccc(CCNc2nccc(-c3c[nH]c4ncc(-c5cccnc5)cc34)n2)cc1 [1B15, N-phenethyl-4-(5-(pyridin-3-yl)-1H-pyrrolo[2,3-b]pyridin-3-yl)pyrimidin-2-amine]
inhibition at 0.5 µM (CDK-2/cyclin A; [1]): > 70% | inhibition at 0.5 µM (CDK-2/cyclin A; [2]): > 70% | inhibition at 0.5 µM (CDK-9/Cyclin T1; [3]): > 70% | inhibition at 0.5 µM (CDK-9/Cyclin T1; [4]): > 70% | inhibition at 10 µM (MCF-7; MCF7, MCF-7, Table 8, read-out: In vitro cell inhibition, % of inhibition, MCF-7): > 50% | inhibition at 10 µM (MCF-7; [5]): > 50% | inhibition at 10 µM (PC-3; Table 8, read-out: In vitro cell inhibition, % of inhibition, PC-3): < 50% | inhibition at 10 µM (MDA-MB435; Table 8): < 50% | inhibition at 10 µM (HCT-116; Table 8, read-out: In vitro cell inhibition, % of inhibition, HCT-116): > 50% | inhibition at 10 µM (SHSY-5Y; SHSY-5Y, Table 8, read-out: In vitro cell inhibition, % of inhibition, SHSY-5Y): > 70% | inhibition at 10 µM (SHSY-5Y; [6]): > 70%

Nc1nccc(-c2c[nH]c3ncc(-c4cccc(C(F)(F)F)c4)cc23)n1 [1C4, 4-(5-(3-(trifluoromethyl)phenyl)-1H-pyrrolo[2,3-b]pyridin-3-yl)pyrimidin-2-amine]
inhibition at 0.5 µM (CDK-2/cyclin A; [1]): > 70% | inhibition at 0.5 µM (CDK-2/cyclin A; [2]): > 70% | inhibition at 0.5 µM (CDK-9/Cyclin T1; [3]): > 70% | inhibition at 0.5 µM (CDK-9/Cyclin T1; [4]): > 70% | inhibition at 10 µM (MCF-7; [7]): > 70% | inhibition at 10 µM (MCF-7; [5]): > 70% | inhibition at 10 µM (PC-3; [8]): < 50% | inhibition at 10 µM (MDA-MB435; Table 9 (for reference)): > 70% | inhibition at 10 µM (HCT-116; [9]): > 70% | inhibition at 10 µM (SHSY-5Y; [10]): > 70% | inhibition at 10 µM (SHSY-5Y; [6]): > 70%

Cc1cccc(-c2cnc3[nH]cc(-c4ccnc(N)n4)c3c2)c1 [1C7, 4-(5-(m-tolyl)-1H-pyrrolo[2,3-b]pyridin-3-yl)pyrimidin-2-amine]
inhibition at 0.5 µM (CDK-2/cyclin A; [1]): > 70% | inhibition at 0.5 µM (CDK-2/cyclin A; [2]): > 70% | inhibition at 0.5 µM (CDK-9/Cyclin T1; [3]): > 70% | inhibition at 0.5 µM (CDK-9/Cyclin T1; [4]): > 70% | inhibition at 10 µM (MCF-7; [7]): > 50% | inhibition at 10 µM (MCF-7; [5]): > 50% | inhibition at 10 µM (PC-3; [8]): > 50% | inhibition at 10 µM (MDA-MB435; Table 9 (for reference)): > 70% | inhibition at 10 µM (HCT-116; [9]): > 70% | inhibition at 10 µM (SHSY-5Y; [10]): > 70% | inhibition at 10 µM (SHSY-5Y; [6]): > 70%

CSc1ccccc1-c1cnc2[nH]cc(-c3ccnc(N)n3)c2c1 [1C9, 4-(5-(2-(methylthio)phenyl)-1H-pyrrolo[2,3-b]pyridin-3-yl)pyrimidin-2-amine]
inhibition at 0.5 µM (CDK-2/cyclin A; [1]): > 70% | inhibition at 0.5 µM (CDK-2/cyclin A; [2]): > 70% | inhibition at 0.5 µM (CDK-9/Cyclin T1; [3]): > 70% | inhibition at 0.5 µM (CDK-9/Cyclin T1; [4]): > 70% | inhibition at 10 µM (MCF-7; [7]): > 70% | inhibition at 10 µM (MCF-7; [5]): > 70% | inhibition at 10 µM (PC-3; [8]): > 70% | inhibition at 10 µM (MDA-MB435; Table 9 (for reference)): > 70% | inhibition at 10 µM (HCT-116; [9]): > 50% | inhibition at 10 µM (SHSY-5Y; [10]): > 70% | inhibition at 10 µM (SHSY-5Y; [6]): > 70%

CCc1ccccc1-c1cnc2[nH]cc(-c3ccnc(N)n3)c2c1 [1C10, 4-(5-(2-ethylphenyl)-1H-pyrrolo[2,3-b]pyridin-3-yl)pyrimidin-2-amine]
inhibition at 0.5 µM (CDK-2/cyclin A; [1]): > 70% | inhibition at 0.5 µM (CDK-2/cyclin A; [2]): > 70% | inhibition at 0.5 µM (CDK-9/Cyclin T1; [3]): > 70% | inhibition at 0.5 µM (CDK-9/Cyclin T1; [4]): > 70% | inhibition at 10 µM (MCF-7; [7]): > 70% | inhibition at 10 µM (MCF-7; [5]): > 70% | inhibition at 10 µM (PC-3; [8]): > 70% | inhibition at 10 µM (MDA-MB435; Table 9 (for reference)): > 70% | inhibition at 10 µM (HCT-116; [9]): > 70% | inhibition at 10 µM (SHSY-5Y; [10]): > 70% | inhibition at 10 µM (SHSY-5Y; [6]): > 70%

Nc1nccc(-c2c[nH]c3ncc(-c4cccc5ccccc45)cc23)n1 [1C14, 4-(5-(naphthalen-1-yl)-1H-pyrrolo[2,3-b]pyridin-3-yl)pyrimidin-2-amine]
inhibition at 0.5 µM (CDK-2/cyclin A; [1]): > 70% | inhibition at 0.5 µM (CDK-2/cyclin A; [2]): > 70% | inhibition at 0.5 µM (CDK-9/Cyclin T1; [3]): > 70% | inhibition at 0.5 µM (CDK-9/Cyclin T1; [4]): > 70% | inhibition at 10 µM (MCF-7; [7]): > 50% | inhibition at 10 µM (MCF-7; [5]): > 50% | inhibition at 10 µM (PC-3; [8]): > 70% | inhibition at 10 µM (MDA-MB435; Table 9 (for reference)): > 50% | inhibition at 10 µM (HCT-116; [9]): > 70% | inhibition at 10 µM (SHSY-5Y; [10]): > 50%

Reference: patent EP3383875B1, “3-PYRIMIDINYL PYRROLO [2,3-B] PYRIDINE AS ANTICANCER AGENTS AND THE PROCESS FOR THE PREPARATION THEREOF” (Council Of Scientific & Industrial Research, priority 2015, dated 2017)
